Measured values published in PubChem BioAssay AID2060891 (Molecular Pharmacology Branch, DTP, NCI, 2025).

System: K98450-129-R-PDC complex spheroid growth, percent test/control
Assay: Anticancer human tumor K98450-129-R-PDC patient-derived colon adenocarcinoma cell line growth inhibition [RAS]
Conditions: for IC50: curve of first compound; for viability, T/C: stronger effect = lower value
Method in brief: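 Multi-cell-type spheroids: tumor cells plus HUVEC endothelial cells and mesenchymal stem cells. RAS-pathway inhibitors were combined with targeted agents, each dosed in half-log steps down from clinical Cmax, or from 10 microM when Cmax was unknown.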

[1] = second compound 0.0316 µM, first compound 0.000949 µM
[2] = second compound 0.0316 µM, first compound 0.003 µM
[3] = second compound 0.0316 µM, first compound 0.00949 µM
[4] = second compound 0.0316 µM, first compound 0.03 µM
[5] = second compound 0.0316 µM, first compound 0.0949 µM
[6] = second compound 0.0316 µM, first compound 0.3 µM
[7] = second compound 0.1 µM, first compound 0.000949 µM
[8] = second compound 0.1 µM, first compound 0.003 µM
[9] = second compound 0.1 µM, first compound 0.00949 µM
[10] = second compound 0.1 µM, first compound 0.03 µM
[11] = second compound 0.1 µM, first compound 0.0949 µM
[12] = second compound 0.1 µM, first compound 0.3 µM
[13] = second compound 0.316 µM, first compound 0.000949 µM
[14] = second compound 0.316 µM, first compound 0.003 µM
[15] = second compound 0.316 µM, first compound 0.00949 µM
[16] = second compound 0.316 µM, first compound 0.03 µM
[17] = second compound 0.316 µM, first compound 0.0949 µM
[18] = second compound 0.316 µM, first compound 0.3 µM
[19] = second compound 1 µM, first compound 0.000949 µM
[20] = second compound 1 µM, first compound 0.003 µM
[21] = second compound 1 µM, first compound 0.00949 µM
[22] = second compound 1 µM, first compound 0.03 µM
[23] = second compound 1 µM, first compound 0.0949 µM
[24] = second compound 1 µM, first compound 0.3 µM
[25] = second compound 3.16 µM, first compound 0.000949 µM
[26] = second compound 3.16 µM, first compound 0.003 µM
[27] = second compound 3.16 µM, first compound 0.00949 µM
[28] = second compound 3.16 µM, first compound 0.03 µM
[29] = second compound 3.16 µM, first compound 0.0949 µM
[30] = second compound 3.16 µM, first compound 0.3 µM
[31] = second compound 10 µM, first compound 0.000949 µM
[32] = second compound 10 µM, first compound 0.003 µM
[33] = second compound 10 µM, first compound 0.00949 µM
[34] = second compound 10 µM, first compound 0.03 µM
[35] = second compound 10 µM, first compound 0.0949 µM
[36] = second compound 10 µM, first compound 0.3 µM
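Also: spheroids exposed to agents for seven days before the viability readout.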
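For viability, T/C in this document: luminescence used as a proxy for viable cell amount.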

CC1(C)CCC(Nc2ncc(C(F)(F)F)c(-c3c[nH]c4c(P(C)(C)=O)c(C#N)ccc34)n2)CN1 (centres undefined) + C#Cc1c(F)ccc2cc(O)cc(-c3ncc4c(N5CC6CCC(C5)N6)nc(OCC56CCCN5CC(F)C6)nc4c3F)c12
IC50 (second compound 0.0316 µM): > 300 nM
IC50 (second compound 0.1 µM): > 300 nM
IC50 (second compound 0.316 µM): > 300 nM
IC50 (second compound 1 µM): > 300 nM
IC50 (second compound 3.16 µM): > 300 nM
IC50 (second compound 10 µM): > 300 nM
viability, T/C [1]: 102%
viability, T/C [2]: 103%
viability, T/C [3]: 100%
viability, T/C [4]: 105%
viability, T/C [5]: 88.5%
viability, T/C [6]: 58.6%
viability, T/C [7]: 107%
viability, T/C [8]: 105%
viability, T/C [9]: 111%
viability, T/C [10]: 100%
viability, T/C [11]: 89.3%
viability, T/C [12]: 66.6%
viability, T/C [13]: 111%
viability, T/C [14]: 105%
viability, T/C [15]: 99.8%
viability, T/C [16]: 100%
viability, T/C [17]: 89.9%
viability, T/C [18]: 69.7%
viability, T/C [19]: 102%
viability, T/C [20]: 97.8%
viability, T/C [21]: 99.3%
viability, T/C [22]: 105%
viability, T/C [23]: 89.2%
viability, T/C [24]: 64%
viability, T/C [25]: 96.1%
viability, T/C [26]: 95.3%
viability, T/C [27]: 95.1%
viability, T/C [28]: 97.7%
viability, T/C [29]: 94.2%
viability, T/C [30]: 66.7%
viability, T/C [31]: 89%
viability, T/C [32]: 94.2%
viability, T/C [33]: 91.4%
viability, T/C [34]: 98.4%
viability, T/C [35]: 85.9%
viability, T/C [36]: 61.9%

CCc1c2c(nc3ccc(O)cc13)-c1cc3c(c(=O)n1C2)COC(=O)[C@]3(O)CC + C#Cc1c(F)ccc2cc(O)cc(-c3ncc4c(N5CC6CCC(C5)N6)nc(OCC56CCCN5CC(F)C6)nc4c3F)c12
IC50 (second compound 0.0316 µM): 36.4 nM
IC50 (second compound 0.1 µM): 44.1 nM
IC50 (second compound 0.316 µM): 47.9 nM
IC50 (second compound 1 µM): 46.9 nM
IC50 (second compound 3.16 µM): 43.3 nM
IC50 (second compound 10 µM): 32.8 nM
viability, T/C [1]: 103%
viability, T/C [2]: 102%
viability, T/C [3]: 75.7%
viability, T/C [4]: 52.2%
viability, T/C [5]: 43.3%
viability, T/C [6]: 33.5%
viability, T/C [7]: 109%
viability, T/C [8]: 101%
viability, T/C [9]: 80.5%
viability, T/C [10]: 52.5%
viability, T/C [11]: 44.4%
viability, T/C [12]: 33%
viability, T/C [13]: 108%
viability, T/C [14]: 101%
viability, T/C [15]: 84.5%
viability, T/C [16]: 54.4%
viability, T/C [17]: 43.6%
viability, T/C [18]: 34%
viability, T/C [19]: 109%
viability, T/C [20]: 100%
viability, T/C [21]: 86.8%
viability, T/C [22]: 54%
viability, T/C [23]: 42.9%
viability, T/C [24]: 36.9%
viability, T/C [25]: 95.7%
viability, T/C [26]: 89.3%
viability, T/C [27]: 78.1%
viability, T/C [28]: 51.9%
viability, T/C [29]: 43.6%
viability, T/C [30]: 33.1%
viability, T/C [31]: 87.2%
viability, T/C [32]: 84.3%
viability, T/C [33]: 75.5%
viability, T/C [34]: 50.9%
viability, T/C [35]: 37.2%
viability, T/C [36]: 33.8%
